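In this assay, cells in 96-well plates receive the compound at five concentrations for 48 hours. Endpoints are linearly interpolated between the surrounding concentrations. TGI: concentration producing complete growth inhibition.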
Key:
Assay in all cases: DTP human tumour cell line panel, 48 h
SK-MEL-5 melanoma = test system: SK-MEL-5 melanoma
SK-MEL-28 melanoma = test system: SK-MEL-28 melanoma
MCF7 breast = test system: MCF7 breast
UACC-257 melanoma = test system: UACC-257 melanoma

SMILES: O=C1NC(N/N=C/C(O)C(O)C(O)C(O)CO)=N/C1=C\c1cccs1 (stereo not drawn)
- TGI (SK-MEL-5 melanoma): > 100 µM
- TGI (SK-MEL-28 melanoma): > 100 µM
- TGI (MCF7 breast): > 100 µM
- TGI (UACC-257 melanoma): > 100 µM

SMILES: CCOC(=O)/C=C/[C@H](O[Si](c1ccccc1)(c1ccccc1)c1ccccc1)C(C)(C)C
- TGI (SK-MEL-5 melanoma): > 31.6 µM
- TGI (MCF7 breast): > 31.6 µM
- TGI (UACC-257 melanoma): > 31.6 µM

SMILES: C=C1CC(CNc2cc(Cl)nc(N)n2)C1
- TGI (SK-MEL-5 melanoma): > 100 µM
- TGI (SK-MEL-28 melanoma): > 100 µM
- TGI (MCF7 breast): > 100 µM
- TGI (UACC-257 melanoma): > 100 µM

SMILES: O=C(/C=C/c1ccc(Cl)c(Cl)c1)CCN1CCN(CCC(=O)/C=C/c2ccc(Cl)c(Cl)c2)CC1
- TGI (SK-MEL-5 melanoma): 38.2 µM
- TGI (SK-MEL-28 melanoma): 46.3 µM
- TGI (MCF7 breast): 19.4 µM
- TGI (UACC-257 melanoma): > 100 µM

SMILES: COc1ccccc1/C=C1/Sc2scc(CC(=O)Nc3ccccc3)[n+]2C1=O
- TGI (SK-MEL-5 melanoma): 36 µM
- TGI (SK-MEL-28 melanoma): > 100 µM
- TGI (MCF7 breast): > 100 µM
- TGI (UACC-257 melanoma): 80.4 µM

SMILES: CC1(C)OC[C@@]2([C@@H]3CC[C@@H](C3)C2(C)C)N1O
- TGI (SK-MEL-5 melanoma): > 100 µM
- TGI (SK-MEL-28 melanoma): > 100 µM
- TGI (MCF7 breast): > 100 µM
- TGI (UACC-257 melanoma): > 100 µM

SMILES: NNC(=O)CCCCCCCC(=O)O
- TGI (SK-MEL-5 melanoma): > 100 µM
- TGI (SK-MEL-28 melanoma): > 100 µM
- TGI (MCF7 breast): > 100 µM
- TGI (UACC-257 melanoma): > 100 µM

SMILES: CO/N=C1/C(n2[nH]c(=O)n(-c3ccccc3)c2=O)C2C=CC1n1c(=O)n(-c3ccccc3)c(=O)n12 (stereo not drawn)
- TGI (SK-MEL-5 melanoma): > 100 µM
- TGI (SK-MEL-28 melanoma): > 100 µM
- TGI (MCF7 breast): > 100 µM
- TGI (UACC-257 melanoma): > 100 µM

SMILES: COC(=O)c1ccc(NCC2=CC(=O)c3ccccc3C2=O)cc1
- TGI (SK-MEL-5 melanoma): 27.6 µM
- TGI (SK-MEL-28 melanoma): 33.8 µM
- TGI (MCF7 breast): > 100 µM
- TGI (UACC-257 melanoma): 29.4 µM

SMILES: N#C[C@](CO)(NC(=O)OCc1ccccc1)C(F)F
- TGI (SK-MEL-5 melanoma): > 100 µM
- TGI (SK-MEL-28 melanoma): > 100 µM
- TGI (UACC-257 melanoma): > 100 µM

SMILES: OCC1CCCCN1Cc1nc2ccc(Cl)cc2[nH]1 (stereo not drawn)
- TGI (SK-MEL-5 melanoma): > 100 µM
- TGI (SK-MEL-28 melanoma): > 100 µM
- TGI (MCF7 breast): > 100 µM
- TGI (UACC-257 melanoma): > 100 µM

SMILES: Cc1cc2nc3c(C(O)CO)nn(-c4ccccc4)c3nc2cc1C (stereo not drawn)
- TGI (SK-MEL-5 melanoma): > 100 µM
- TGI (SK-MEL-28 melanoma): 42 µM
- TGI (MCF7 breast): 47.3 µM
- TGI (UACC-257 melanoma): 48.1 µM

SMILES: COc1cccc2c1C(=O)c1ccc3cc(CO)cc(O)c3c1C2=O
- TGI (SK-MEL-5 melanoma): 0.508 µM
- TGI (SK-MEL-28 melanoma): 5.61 µM
- TGI (MCF7 breast): 1.56 µM
- TGI (UACC-257 melanoma): 0.412 µM

SMILES: CCOC(=O)c1ccc(Nc2nc3ccc(C(F)(F)F)cc3nc2-c2ccccc2)cc1
- TGI (SK-MEL-5 melanoma): > 100 µM
- TGI (SK-MEL-28 melanoma): > 100 µM
- TGI (MCF7 breast): > 100 µM
- TGI (UACC-257 melanoma): > 100 µM

SMILES: COc1cc(/C=C/C(=O)O)ccc1O
- TGI (SK-MEL-5 melanoma): > 100 µM
- TGI (SK-MEL-28 melanoma): > 100 µM
- TGI (MCF7 breast): > 100 µM
- TGI (UACC-257 melanoma): > 100 µM

SMILES: c1ccc2c(Cc3c[nH]c4ccccc34)c[nH]c2c1
- TGI (SK-MEL-5 melanoma): 27.2 µM
- TGI (SK-MEL-28 melanoma): > 100 µM
- TGI (MCF7 breast): > 100 µM
- TGI (UACC-257 melanoma): 34.5 µM

SMILES: C=C(Br)C(Cl)(CBr)CCC(Br)C(C)(C)Cl (stereo not drawn)
- TGI (SK-MEL-5 melanoma): > 10 µM
- TGI (SK-MEL-28 melanoma): > 10 µM
- TGI (MCF7 breast): > 10 µM

SMILES: COc1ccc(/C=N/n2c(Cc3ccc(Cl)cc3)n[nH]c2=O)cc1
- TGI (SK-MEL-28 melanoma): > 100 µM
- TGI (MCF7 breast): > 100 µM
- TGI (UACC-257 melanoma): > 100 µM

SMILES: O=C(CN=C(CN(c1ccccc1)c1ccccc1)Oc1c([N+](=O)[O-])cc([N+](=O)[O-])cc1[N+](=O)[O-])N1CCNCC1
- TGI (SK-MEL-5 melanoma): > 100 µM
- TGI (SK-MEL-28 melanoma): > 100 µM
- TGI (MCF7 breast): > 100 µM
- TGI (UACC-257 melanoma): > 100 µM

SMILES: CCOP(=O)(OCC)C(Cc1ccccc1)N=C(c1ccccc1)c1ccccc1 (stereo not drawn)
- TGI (SK-MEL-5 melanoma): 25.5 µM
- TGI (SK-MEL-28 melanoma): 31.3 µM
- TGI (MCF7 breast): 31.2 µM
- TGI (UACC-257 melanoma): 27.1 µM

SMILES: CSc1cc(Cl)c(C)cc1S(=O)(=O)NC(=O)NNc1ccccn1
- TGI (SK-MEL-5 melanoma): > 100 µM
- TGI (SK-MEL-28 melanoma): > 100 µM
- TGI (MCF7 breast): > 100 µM

SMILES: O=C(c1ccco1)N1CCN(C(=O)c2ccco2)C1=S
- TGI (SK-MEL-5 melanoma): 25.1 µM
- TGI (SK-MEL-28 melanoma): 22.8 µM
- TGI (MCF7 breast): 11 µM
- TGI (UACC-257 melanoma): 23.3 µM

SMILES: CCOC(=O)c1c(NC(=O)c2ccccc2)sc2c1CCC2
- TGI (SK-MEL-5 melanoma): > 100 µM
- TGI (MCF7 breast): > 100 µM
- TGI (UACC-257 melanoma): > 100 µM

SMILES: CCOC(=O)C1(Cc2ccccc2)CCN(C(=O)c2ccccc2)C2C1C2(Cl)Cl (stereo not drawn)
- TGI (SK-MEL-5 melanoma): 29.5 µM
- TGI (SK-MEL-28 melanoma): 51.6 µM
- TGI (MCF7 breast): 71 µM
- TGI (UACC-257 melanoma): 36.3 µM

SMILES: COc1cc(/C=C2\CCc3cc(OC)c(OC)cc3C2=O)cc(OC)c1
- TGI (SK-MEL-5 melanoma): 18.1 µM
- TGI (SK-MEL-28 melanoma): > 100 µM
- TGI (MCF7 breast): > 84.3 µM
- TGI (UACC-257 melanoma): > 100 µM

SMILES: CC1(C)N=C(N)N=C(N)N1c1ccc(CCCCc2ccc(Cl)cc2Cl)cc1
- TGI (SK-MEL-5 melanoma): 2.84 µM
- TGI (SK-MEL-28 melanoma): 19.2 µM
- TGI (MCF7 breast): 11.8 µM
- TGI (UACC-257 melanoma): 8.65 µM

SMILES: Cc1[nH]n(-c2nc(O)c(C)c(=O)[nH]2)c(=O)c1CCO
- TGI (SK-MEL-5 melanoma): > 100 µM
- TGI (SK-MEL-28 melanoma): > 100 µM
- TGI (MCF7 breast): > 100 µM
- TGI (UACC-257 melanoma): > 100 µM

SMILES: O=S(=O)(NC(c1ccccc1)(c1cc2ccccc2[nH]1)c1cc2ccccc2n1S(=O)(=O)c1ccccc1)c1ccccc1 (stereo not drawn)
- TGI (SK-MEL-5 melanoma): > 100 µM
- TGI (SK-MEL-28 melanoma): > 100 µM
- TGI (UACC-257 melanoma): > 100 µM

SMILES: CCO[C@H]1C[C@@H](c2ccccc2)[C@]2(C)C[C@H](C(=O)OC)ON2O1
- TGI (SK-MEL-5 melanoma): > 100 µM
- TGI (SK-MEL-28 melanoma): > 100 µM
- TGI (MCF7 breast): > 100 µM
- TGI (UACC-257 melanoma): > 100 µM

SMILES: OCCCN(CCc1ccc(Cl)c(Cl)c1)CCN1CCCC1
- TGI (MCF7 breast): 79.9 µM
- TGI (UACC-257 melanoma): 36 µM

SMILES: COC(=O)[C@H]1ON2O[C@@H](O[C@H]3CCCC[C@@H]3C(C)(C)c3ccccc3)C[C@@H]3CC[C@H]1[C@@]32C
- TGI (SK-MEL-5 melanoma): > 100 µM
- TGI (MCF7 breast): > 100 µM
- TGI (UACC-257 melanoma): > 100 µM

SMILES: C/C=C/[C@@H]1O[C@H](CC#C[Si](C)(C)C)[C@@]2(C=O)C(C)=CC[C@H](C(C)C)[C@@H]12
- TGI (SK-MEL-5 melanoma): 35.2 µM
- TGI (SK-MEL-28 melanoma): 47.8 µM
- TGI (MCF7 breast): 63.1 µM
- TGI (UACC-257 melanoma): 32.5 µM

SMILES: CCOC(=O)c1cc2cc(CSc3ccccc3)ccc2oc1=O
- TGI (SK-MEL-5 melanoma): > 100 µM
- TGI (SK-MEL-28 melanoma): > 100 µM
- TGI (MCF7 breast): > 100 µM
- TGI (UACC-257 melanoma): > 100 µM

SMILES: O=S(=O)(O)Nc1ccc(-c2nc3ccccc3s2)cc1Cl
- TGI (SK-MEL-5 melanoma): > 100 µM
- TGI (SK-MEL-28 melanoma): > 100 µM
- TGI (UACC-257 melanoma): > 100 µM

SMILES: N#Cc1nsnc1-c1nc(-c2nsnc2C#N)nc(-c2nsnc2C#N)n1
- TGI (SK-MEL-5 melanoma): > 100 µM
- TGI (SK-MEL-28 melanoma): > 100 µM
- TGI (MCF7 breast): > 100 µM
- TGI (UACC-257 melanoma): > 100 µM

SMILES: CCOC(=O)NC(N(C)C(C(C)C)P(=O)(OCC)OCC)(C(F)(F)F)C(F)(F)F (stereo not drawn)
- TGI (SK-MEL-5 melanoma): > 100 µM
- TGI (SK-MEL-28 melanoma): > 100 µM
- TGI (MCF7 breast): > 100 µM
- TGI (UACC-257 melanoma): > 100 µM

SMILES: Cn1c2ccccc2n2c3ccccc3c(=S)c(C#N)c12
- TGI (SK-MEL-5 melanoma): > 100 µM
- TGI (SK-MEL-28 melanoma): > 100 µM
- TGI (MCF7 breast): > 100 µM
- TGI (UACC-257 melanoma): > 100 µM

SMILES: N#Cc1nc(Cc2ccccc2)oc1N
- TGI (SK-MEL-5 melanoma): > 100 µM
- TGI (SK-MEL-28 melanoma): > 100 µM
- TGI (MCF7 breast): > 100 µM
- TGI (UACC-257 melanoma): > 100 µM

SMILES: COc1ccc(NC(C)=O)c(C(=O)CCNC(C)=O)c1
- TGI (SK-MEL-5 melanoma): > 100 µM
- TGI (MCF7 breast): > 100 µM
- TGI (UACC-257 melanoma): > 100 µM

SMILES: C(/C=N/NC1=NCCN1)=N\NC1=NCCN1
- TGI (SK-MEL-5 melanoma): > 100 µM
- TGI (SK-MEL-28 melanoma): > 100 µM
- TGI (MCF7 breast): > 100 µM
- TGI (UACC-257 melanoma): > 100 µM
